This is an account of results in PMC7418559, “Synthesis and SAR of Tetracyclic Inhibitors of Protein Kinase CK2 Derived from Furocarbazole W16” (Chemmedchem, 2020).

Where two headings read alike, the source gives them in different places.

One assay deals with CK2. Further details: method as in PMID 29759799. The note with it: cited from earlier work.
For the next assay, the target named is T1, holoenzyme CK2α2β2 (Homo sapiens, UniProt P68400).
T1 construct: made in house; host or cells: E. coli BL21(DE3)
The assay is described as follows: Capillary electrophoresis (CE) assay, enzyme inhibition of the holoenzyme. The class given is biochemical. The note with it: read-out: Inhibition (%) of CK2α2β2. As for the experimental part:
In this assay, the decapeptide […], a known class I substrate suitable for assaying the kinase activity of both the CK2 holoenzyme and the catalytically active CK2 subunits,50, 58 was reacted with ATP in the presence of enzyme, which transfers a phosphate group to Ser7 of the decapeptide. Due to the additional negative charge of the phosphate group, the decapeptide and the phosphorylated decapeptide can be separated by CE.
Enzymatic activities with or without inhibitors were determined for the holoenzyme (CK2α2β2), the CK2α subunit, and the mutated CK2α′ ^C336S subunit by a capillary electrophoresis assay as described before.59 For this purpose, CK2α as well as (CK2α2β2) holoenzyme were purified after recombinant expression in E. coli BL21(DE3) and purified according the protocol of Grankowski et al.62 The mutated CK2α′ ^C336S subunit was purified by Ni‐NTA affinity chromatography using an N‐terminally attached His6 tag. […] For both CK2α subunits an assay buffer containing 100 mM NaCl instead of 60 mM NaCl as for the holoenzyme, and 20 mM MgCl2 instead of 10 mM MgCl2 was applied. For the holoenzyme, 1 μg was added, whereas for CK2α and the mutated CK2α′ ^C336S subunit 0.25 μg was added each. For each compound inhibition was determined three times independently at an initial concentration of 10 μM and the mean value and the standard deviation (SD) were calculated.

Assay [1] concerns the target T2, mutated CK2α’ ^C336S subunit (Homo sapiens, UniProt P19784, C336S).
T2 construct: His6 (N); made in house
T2 sequence (P19784 1-350 C336S): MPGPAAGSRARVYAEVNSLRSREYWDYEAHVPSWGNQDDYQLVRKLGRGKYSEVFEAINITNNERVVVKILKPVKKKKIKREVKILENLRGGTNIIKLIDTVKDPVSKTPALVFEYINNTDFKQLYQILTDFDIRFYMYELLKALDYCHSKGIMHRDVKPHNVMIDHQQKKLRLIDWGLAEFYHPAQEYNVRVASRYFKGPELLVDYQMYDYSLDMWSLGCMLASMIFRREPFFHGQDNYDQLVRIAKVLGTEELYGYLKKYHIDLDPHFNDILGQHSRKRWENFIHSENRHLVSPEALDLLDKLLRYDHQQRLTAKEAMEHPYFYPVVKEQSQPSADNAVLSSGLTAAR
The assay is described as follows: Capillary electrophoresis (CE) assay, enzyme inhibition of the mutated CK2α′ C336S subunit. The class given is biochemical. The note with it: c=10 μM, CE assay, mean±SD of three experiments, n.s.=not significant; for inhibition at 10 µM: read-out: Inhibition (%) of CK2α’ ^C336S. The text has this: (§1) In this assay, the decapeptide […], a known class I substrate suitable for assaying the kinase activity of both the CK2 holoenzyme and the catalytically active CK2 subunits,50, 58 was reacted with ATP in the presence of enzyme, which transfers a phosphate group to Ser7 of the decapeptide. Due to the additional negative charge of the phosphate group, the decapeptide and the phosphorylated decapeptide can be separated by CE. […] The data on the inhibition of the kinase activities of CK2α2β2, CK2α subunit and mutated CK2α’ ^C336S subunit are summarized in Table 1.
(§2) Enzymatic activities with or without inhibitors were determined for the holoenzyme (CK2α2β2), the CK2α subunit, and the mutated CK2α′ ^C336S subunit by a capillary electrophoresis assay as described before.59 For this purpose, CK2α as well as (CK2α2β2) holoenzyme were purified after recombinant expression in E. coli BL21(DE3) and purified according the protocol of Grankowski et al.62 The mutated CK2α′ ^C336S subunit was purified by Ni‐NTA affinity chromatography using an N‐terminally attached His6 tag. Successful purification was controlled by SDS‐PAGE. Enzymatic activity was determined in the presence of 60 μM ATP and 114 μM of the substrate peptide […]. For both CK2α subunits an assay buffer containing 100 mM NaCl instead of 60 mM NaCl as for the holoenzyme, and 20 mM MgCl2 instead of 10 mM MgCl2 was applied. For the holoenzyme, 1 μg was added, whereas for CK2α and the mutated CK2α′ ^C336S subunit 0.25 μg was added each. For each compound inhibition was determined three times independently at an initial concentration of 10 μM and the mean value and the standard deviation (SD) were calculated.

For a further assay, the system named is monomeric CK2α. More on the design: method as in PMID 18553057. The note with it: read-out: IC50, inhibition of the catalytic activity of monomeric CK2α; cited from earlier work.
The subject of the next assay is CK2α/CK2β interaction. More on the design: method as in PMID 18553057. The settings on record: read-out: IC50, inhibition of CK2α/CK2β interaction (PPII); cited from earlier work.
In another assay the target is T3, CK2α subunit (Homo sapiens, UniProt P68400).
T3 construct: made in house; host or cells: E. coli BL21(DE3)
Put plainly: Capillary electrophoresis (CE) assay, enzyme inhibition of the CK2α subunit. The class given is biochemical. The note with it: for inhibition at 10 µM: read-out: Inhibition (%) of CK2α.
Description: as §1, §2

For assay [2], the target named is T4, CK2α/CK2β interaction (CK2α^1−335 / fluorescently labeled CK2β^1−193) (Homo sapiens, UniProt P68400).
T4 sequence (P68400 1-335): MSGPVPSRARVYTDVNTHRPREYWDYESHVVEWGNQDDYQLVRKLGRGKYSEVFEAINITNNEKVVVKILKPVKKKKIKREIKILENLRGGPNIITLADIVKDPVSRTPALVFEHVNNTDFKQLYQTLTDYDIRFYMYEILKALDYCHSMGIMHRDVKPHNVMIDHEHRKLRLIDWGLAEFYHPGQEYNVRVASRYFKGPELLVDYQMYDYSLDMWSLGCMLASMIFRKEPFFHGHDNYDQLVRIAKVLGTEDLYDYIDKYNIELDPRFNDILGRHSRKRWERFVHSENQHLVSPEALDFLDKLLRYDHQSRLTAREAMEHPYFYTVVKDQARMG
Description: The inhibition of the interaction between the CK2α and the CK2β subunit was determined in a microscale thermophoresis (MST) assay.
To quantify the protein‐protein interaction in the presence of potential inhibitors, the investigated compounds were first dissolved in DMSO (2‐10 mM) and then 50‐fold diluted in ITC buffer (25 mM Tris‐HCl, 500 mM NaCl, pH 8.5) containing 0.1 % (v/v) Tween 20 to concentrations of either 40, 100 or 200 μM in 2 % (v/v) DMSO, i. e. twice the final concentrations: 20, 50 and 100 μM, respectively, in 1 % (v/v) DMSO, 0.05 % (v/v) Tween 20. […] MST traces were recorded at room temperature using a Nanotemper Monolith™ NT.115 Series Instrument with Monolith™ NT.115 standard treated capillaries and normalized to initial fluorescence (MO.Affinity Analysis, Nanotemper). […] Next, the statistical significance of the shift from K D to K D’ was determined for each compound by means of an unpaired Student's t test (Table S4). […] Data was analyzed and statistically evaluated with the program GraphPad Prism v.5.04 for Windows (GraphPad Software, San Diego, CA, USA).
a Shown are mean  SEM values of KD and KD’ for n separate experiments.
significant (n. s.), P > 0.05; *, P ≤ 0.05; **, P ≤ 0.01; ***, P ≤ 0.001; ****, P ≤ 0.0001. prec.

[3] abbreviates: c=10 μM, CE assay, mean±SD of three experiments, n.s.=not significant.

T1 sequence (P68400 whole entry): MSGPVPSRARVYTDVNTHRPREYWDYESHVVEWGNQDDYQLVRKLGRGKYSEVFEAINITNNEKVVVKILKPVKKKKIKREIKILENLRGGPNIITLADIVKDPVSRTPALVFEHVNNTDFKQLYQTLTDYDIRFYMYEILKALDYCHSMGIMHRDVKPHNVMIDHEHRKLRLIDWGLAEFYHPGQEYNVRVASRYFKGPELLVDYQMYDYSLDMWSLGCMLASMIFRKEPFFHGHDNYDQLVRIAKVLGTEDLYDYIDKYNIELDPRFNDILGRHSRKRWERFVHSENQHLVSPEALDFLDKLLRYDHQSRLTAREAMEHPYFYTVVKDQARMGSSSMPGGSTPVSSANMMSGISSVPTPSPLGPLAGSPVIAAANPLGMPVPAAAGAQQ
T3 sequence (P68400 whole entry): as above

Turning to `NCc1cc(Cl)cc(-c2cccc3[nH]ccc23)c1` [CAM187], the “Inhibition of CK2 activity” value with CK2 is “did not significantly inhibit CK2 activity”.
As for `COc1cc([C@H]2c3c([nH]c4ccccc34)[C@@H](C(=O)N3C(=O)OC[C@@H]3Cc3ccccc3)[C@H]3C(=O)OC(=O)[C@@H]23)cc(OC)c1OC` [(+)‐3 a, (3aR,4S,10S,10aS)‐4‐{[(S)‐4‐Benzyl‐2‐oxo‐1,3‐oxazolidin‐3‐yl]carbonyl}‐10‐(3,4,5‐trimethoxyphenyl)‐4,5,10,10a‐tetrahydrofuro[3,4‐b]carbazole‐1,3(3aH)‐dione], the inhibition at 10 µM on holoenzyme CK2α2β2 worked out at 84 ± 5%; in assay [1], 85 ± 13%; at CK2α subunit, 76 ± 4%. Moreover, the IC50 with monomeric CK2α was 20 µM; in the assay with CK2α/CK2β interaction, […].
In the case of `COc1cc([C@H]2c3c([nH]c4ccccc34)[C@@H](C(=O)N3C(=O)OC[C@H]3Cc3ccccc3)[C@H]3C(=O)NC(=O)[C@@H]23)cc(OC)c1OC` [(+)‐9 b, (3aS,4S,10S,10aS)‐4‐{[(R)‐4‐Benzyl‐2‐oxo‐1,3‐oxazolidin‐3‐yl]carbonyl}‐10‐(3,4,5‐trimethoxyphenyl)‐4,5,10,10a‐tetrahydropyrrolo[3,4‐b]carbazole‐1,3(2H,3aH)‐dione], at holoenzyme CK2α2β2 (setting [3]), the inhibition at 10 µM is 12 ± 7%. In assay [1], the “Inhibition (%) of CK2α’ ^C336S” value is given as “n.s”. In assay [2], the affinity corresponds to a Ki of 4.9 ± 0.8 µM. In addition, the “Inhibition (%) of CK2α” value at CK2α subunit (setting [3]) was “n.s”.
Turning to `COc1cc([C@H]2c3c([nH]c4ccccc34)[C@@H](C(=O)N3C(=O)OC[C@@H]3Cc3ccccc3)[C@H]3C(=O)NC(=O)[C@@H]23)cc(OC)c1OC` [(+)‐9 a], the inhibition at 10 µM on holoenzyme CK2α2β2 (setting [3]) stood at 20 ± 4%. Further, the “Inhibition (%) of CK2α’ ^C336S” value in assay [1] is recorded as “n.s”. Moreover, the “Inhibition of CK2α/CK2β2 interaction K i” value in assay [2] (MST, global fit with K D = […] nM, mean±SEM of 2–4 experiments, prec.=precipitation, n.s.=not significant) was “n.s”. Moreover, the “Inhibition (%) of CK2α” value at CK2α subunit (setting [3]) is listed as “n.s”.
As to `COc1cc([C@H]2c3c([nH]c4ccccc34)[C@@H](C(=O)N3C(=O)OC[C@@H]3Cc3ccccc3)[C@H]3C(=O)N(C)C(=O)[C@@H]23)cc(OC)c1OC` [(+)‐10 a], the inhibition at 10 µM on holoenzyme CK2α2β2 (setting [3]) came out at 26 ± 7%; in assay [1] it was 53 ± 15%; on CK2α subunit (setting [3]), 41 ± 11%. Moreover, the affinity in assay [2], expressed as Ki, was 2.8 ± 0.9 µM.
